This note sets out measurements from patent US20230013602A1, “NOVEL IMIDAZOPYRAZINE DERIVATIVES” (Hoffmann-La Roche Inc., priority 2018, published 2023).

Molecules are shown by their SMILES. Counter-ions that a name gives are not always drawn.

Broadly, the IC90 is the concentration needed for an effect of 90%.

In the first assay the test system is Acinetobacter baumannii ATCC 17978. The experiment in a line: Antimicrobial susceptibility testing, 90% growth inhibitory concentration (IC90) determination. The assay is classed as cell-based. The following applies: Acinetobacter baumannii ATCC17978, Iso-Sensitest broth, OD 600 nm over 16 h. On the procedure:
(§1) The in vitro antimicrobial activity of the compounds was determined according to the following procedure:
(§2) The assay used a 10-points Iso-Sensitest broth medium to measure quantitatively the in vitro activity of the compounds against Acinetobacter baumannii ATCC 17978 and Acinetobacter baumannii ATCC17961.
(§3) Stock compounds in DMSO were serially twofold diluted (e.g. range from 50 to 0.097 μM final concentration) in 384 wells microtiter plates and inoculated with 49 μl the bacterial suspension in Iso-Sensitest medium to have a final cell concentration of ˜5×10^(5) CFU/ml in a final volume/well of 50 ul/well. Microtiter plates were incubated at 35+2° C.
(§4) Bacterial cell growth was determined with the measurement of optical density at X=600 nm each 20 minutes over a time course of 16 h. Growth inhibition was calculated during the logarithmic growth of the bacterial cells with determination of the concentration inhibiting 50% (IC50) and 90% (IC90) of the growth.
(§5) Table 1 provides the 90% growth inhibitory concentrations (IC90) in micromoles per liter of the compounds of present invention obtained against the strain Acinetobacter baumannii ATCC17978 and Acinetobacter baumannii ATCC17961.
For the molecule `COc1ccc(-c2cnc3c(Nc4ccc(C(=O)NC5CCN(C)CC5)c(C)c4)nccn23)cc1` [Example 1, 4-((3-(4-methoxyphenyl)imidazo[1,2-a]pyrazin-8-yl)amino)-2-methyl-N-(1-methylpiperidin-4-yl)benzamide], the IC90 is 2200 nM.
In turn, `Cc1cc(Nc2nccn3c(-c4ccc(OC(F)F)cc4)cnc23)ccc1C(=O)NC1CN2CCC1CC2` (centres unmarked) [Example 2, 4-((3-(4-(difluoromethoxy)phenyl)imidazo[1,2-a]pyrazin-8-yl)amino)-2-methyl-N-(quinuclidin-3-yl)benzamide] displayed a 90% effect concentration (IC90) of 3200 nM.
For the molecule `CCc1cc(Nc2nccn3c(-c4ccc(OC)c(F)c4F)cnc23)ccc1C(=O)N[C@@H]1CCNC1` [Example 3, (R)-4-((3-(2,3-difluoro-4-methoxyphenyl)imidazo[1,2-a]pyrazin-8-yl)amino)-2-ethyl-N-(pyrrolidin-3-yl)benzamide hydrochloride], the IC90 is 260 nM.
The molecule `COc1ccc(-c2cnc3c(Nc4ccc(C(=O)NC5COC(CN)OC5)c(C)c4)nccn23)cc1` (centres unmarked) [Example 7, N-(2-(aminomethyl)-1,3-dioxan-5-yl)-4-((3-(4-methoxyphenyl)imidazo [1,2-a]pyrazin-8-yl)amino)-2-methylbenzamide] yielded an IC90 of 540 nM.
With `COc1ccc(-c2cnc3c(Nc4ccc(C(=O)N(C)C5CCN(C)CC5)c(C)c4)nccn23)cc1` [Example 15, 4-[[3-(4-methoxyphenyl)imidazo[1,2-a]pyrazin-8-yl]amino]-N,2-dimethyl-N-(1-methylpiperidin-4-yl)benzamide], the 90% effect level (IC90) was put at 5300 nM.
`COc1ccc(-c2cnc3c(Nc4ccc(C(=O)N(C)C5CCN(C)CC5)cc4)nccn23)cc1` [Example 16, 4-[[3-(4-methoxyphenyl)imidazo[1,2-a]pyrazin-8-yl]amino]-N-methyl-N-(1-methylpiperidin-4-yl)benzamide] showed a concentration for an effect of 90% (IC90) of 5900 nM.
As for `COc1ccc(-c2cnc3c(Nc4ccc(C(=O)N(C)[C@@H]5CNC[C@H]5O)c(C)c4)nccn23)cc1F` [Example 17, 4-[[3-(3-fluoro-4-methoxyphenyl)imidazo[1,2-a]pyrazin-8-yl]amino]-N-[(3R,4R)-4-hydroxypyrrolidin-3-yl]-N,2-dimethylbenzamide;hydrochloride], it took 2600 nM to reach the 90% level (IC90).
Consider `COc1ccc(-c2cnc3c(Nc4ccc(C(=O)N(C)C5CCNCC5)c(Cl)c4)nccn23)cc1F` [Example 20, 2-chloro-4-[[3-(3-fluoro-4-methoxyphenyl)imidazo[1,2-a]pyrazin-8-yl]amino]-N-methyl-N-piperidin-4-ylbenzamide;hydrochloride], for which the 90% effect concentration (IC90) came out at 820 nM.
The molecule `COc1ccc(-c2cnc3c(Nc4ccc(C(=O)N(C)C5CCNCC5)c(C)c4)nccn23)cc1F` [Example 21, 4-[[3-(3-fluoro-4-methoxyphenyl)imidazo[1,2-a]pyrazin-8-yl]amino]-N, 2-dimethyl-N-piperidin-4-ylbenzamide;hydrochloride] had a concentration for an effect of 90% (IC90) of 1100 nM.
`Cc1cc(Nc2nccn3c(-c4ccc(OC(F)F)c(F)c4)cnc23)ccc1C(=O)N(C)C1CCNCC1` [Example 22, 4-[[3-[4-(difluoromethoxy)-3-fluorophenyl]imidazo[1,2-a]pyrazin-8-yI]amino]-N,2-dimethyl-N-piperidin-4-ylbenzamide;hydrochloride] came in with a concentration for an effect of 90% (IC90) of 1300 nM.

Another assay has as its system Acinetobacter baumannii ATCC17961. Described as above. Format: cell-based. Conditions: 90% growth inhibitory concentration, Acinetobacter baumannii ATCC17961, Iso-Sensitest broth, OD 600 nm over 16 h; read-out: ATCC17961 IC90. On the procedure: as §1, §2, §3, §4, §5
For the molecule `CCc1cc(Nc2nccn3c(-c4ccc(OC)c(F)c4F)cnc23)ccc1C(=O)NC12CC(N)(C1)C2` [Example 61, N-(3-aminobicyclo[1.1.1]pentan-1-yl)-4-((3-(2,3-difluoro-4-methoxyphenyl)imidazo[1,2-a]pyrazin-8-yl)amino)-2-ethylbenzamide dihydrochloride], the 90% effect concentration (IC90) came out at 259 nM.
Same read-out and setting: the value for `COc1ccc(-c2cnc3c(Nc4ccc(C(=O)N[C@H]5CC[C@H](NC(=O)[C@@H]6C[C@@H](O)CN6)CC5)c(C)c4)nccn23)c(F)c1F` [Example 62, (2S,4R)-N-((1r,4S)-4-(4-((3-(2,3-difluoro-4-methoxyphenyl)imidazo[1,2-a]pyrazin-8-yl)amino)-2-methylbenzamido)cyclohexyI)-4-hydroxypyrrolidine-2-carboxamide] was 268 nM; that for `COc1ccc(-c2cnc3c(Nc4ccc(C(=O)N[C@@H]5CCN(C(=O)[C@@H]6C[C@@H](O)CN6)C5)c(C)c4)nccn23)c(F)c1F` [Example 63] was 55 nM; that for `COc1ccc(-c2cnc3c(Nc4ccc(C(=O)N[C@H]5CCN(C(=O)[C@@H]6C[C@@H](O)CN6)C5)c(C)c4)nccn23)c(F)c1F` [Example 64, 4-((3-(2,3-difluoro-4-methoxyphenyl)imidazo[1,2-a]pyrazin-8-yl)amino)-N-((S)-1-((2S,4R)-4-hydroxypyrrolidine-2-carbonyI)pyrrolidin-3-yl)-2-methylbenzamide] was 81 nM.
`COc1ccc(-c2cnc3c(Nc4ccc(C(=O)NC5CN(C(=O)[C@@H]6C[C@@H](O)CN6)C5)c(C)c4)nccn23)c(F)c1F` [Example 65, 4-((3-(2,3-difluoro-4-methoxyphenyl)imidazo[1,2-a]pyrazin-8-yl)amino)-N-(1-((2S,4R)-4-hydroxypyrrolidine-2-carbonyl)azetidin-3-yl)-2-methylbenzamide]: the IC90 was determined as 47 nM.
On to `COc1ccc(-c2cnc3c(Nc4ccc(C(=O)N[C@H]5C[C@@H](NC(=O)[C@@H]6C[C@@H](O)CN6)C5)c(C)c4)nccn23)c(F)c1F` [Example 66, (2S,4R)-N-((1s,3R)-3-(4-((3-(2,3-difluoro-4-methoxyphenyl)imidazo[1,2-a]pyrazin-8-yl)amino)-2-methylbenzamido)cyclobutyl)-4-hydroxypyrrolidine-2-carboxamide], for which the IC90 worked out at 40 nM.
For the molecule `COc1ccc(-c2cnc3c(Nc4ccc(C(=O)N[C@H]5C[C@H](NC(=O)[C@@H]6C[C@@H](O)CN6)C5)c(C)c4)nccn23)c(F)c1F` [Example 67, (2S,4R)-N-((1r,3 S)-3-(4-((3-(2,3-difluoro-4-methoxyphenyl)imidazo[1,2-a]pyrazin-8-yl)amino)-2-methylbenzamido)cyclobutyl)-4-hydroxypyrrolidine-2-carboxamide], the 90% effect concentration (IC90) came out at 101 nM.
For `CCc1cc(Nc2nccn3c(-c4ccc(OC)c(F)c4F)cnc23)ccc1C(=O)NC12CC(NC(=O)[C@@H]3C[C@@H](O)CN3)(C1)C2` [Example 70, (2S,4R)-N-(3-(4-((3-(2,3-difluoro-4-methoxyphenyl)imidazo[1,2-a]pyrazin-8-yl)amino)-2-ethylbenzamido)bicyclo[1.1.1]pentan-1-yl)-4-hydroxypyrrolidine-2-carboxamide dihydrochloride], the concentration for an effect of 90% (IC90) amounted to 197 nM.
The same measure, in the same setting: under `CCc1cc(Nc2nccn3c(-c4ccc(OC)c(F)c4F)cnc23)ccc1C(=O)N[C@@H]1CCC[C@@H]1N` [Example 71, N-((1R,2S)-2-aminocyclopentyl)-4-((3-(2,3-difluoro-4-methoxyphenyl)imidazo[1,2-a]pyrazin-8-yl)amino)-2-ethylbenzamide dihydrochloride] stands 712 nM.

The same assay, now with this note: Acinetobacter baumannii, ATCC17961, 16 h, read-out: ATCC17961 IC90.
As to `CCc1cc(Nc2nccn3c(-c4ccc(OC)c(F)c4F)cnc23)ccc1C(=O)N[C@H]1[C@@H]2CNC[C@@H]21` [Example 72, rac-N-((1R,5 S,6s)-3-azabicyclo[3.1,0]hexan-6-yI)-4-((3-(2,3-difluoro-4-methoxyphenyl)imidazo[1,2-a]pyrazin-8-yl)amino)-2-ethylbenzamide hydrochloride], the IC90 was 295 nM.
